Earlier results as cited in patent publication US20080057122A1, “Acetaminophen pharmaceutical compositions” (priority 2006, published 2008).

Compound | time in which peak concentrations are reached (Darvocet-N 100 immediate release tablets) | early half-life (in vivo) | terminal half-life (in vivo)
CC(=O)Nc1ccc(O)cc1 [acetaminophen] | ≤ 2 h | – | –
CCC(=O)O[C@](Cc1ccccc1)(c1ccccc1)[C@H](C)CN(C)C [propoxyphene] | – | 6 to 12 h | approximately 20 hours
